# Like-named read-outs stand apart in the source and are kept apart here.
# Columns and labels:
# human Nav1.7 = human Nav1.7 (Homo sapiens, UniProt Q15858); assay: FLIPR or FLIPR TETRA sodium dye assay with KCl and test article pre-incubation; type: cell-based
# hNav1.7 = hNav1.7 (Homo sapiens, UniProt Q15858); assay: Electrophysiology (EP) assay, whole-cell patch clamp; type: cell-based; details: for Kd: resting block dissociation constant, read-out: EP Nav1.7 Kr
# Protocol: The hNav1.7 expressing HEK-293 cells were plated on 35 mm culture dishes pre-coated with poly-D-lysine in standard DMEM culture media (Mediatech, Inc., Herndon, Va.) and incubated in a 5% CO2 incubator at 37° C. Cultured cells were used approximately 12-48 hours after plating.
# On the day of experimentation, the 35 mm dish was placed on the stage of an inverted microscope equipped with a perfusion system that continuously perfuses the culture dish with fresh recording media. A gravity driven superfusion system was used to apply test solutions directly to the cell under evaluation. This system consists of an array of glass pipette glass connected to a motorized horizontal translator. The outlet of the shooter was positioned approximately 100 μm from the cell of interest.
# Whole cell currents were recorded using the whole-cell patch clamp configuration using an Axopatch 200B amplifier (Axon Instruments, Foster City Calif.), 1322A A/D converter (Axon Instruments) and pClamp software (v. 8; Axon Instruments) and stored on a personal computer. Gigaseals were formed and the whole-cell configuration was established in voltage clamp mode, and membrane currents generated by hNav1.7 were recorded in gap-free mode. Borosilicate glass pipettes have resistance values between 1.5 and 2.0 MΩ when filled with pipette solution and series resistance (<5 MΩ) was compensated 75-80%. Signals were sampled at 50 kHz and low pass filtered at 3 kHz.
# After establishing the whole-cell configuration in voltage clamp mode, voltage protocols were run to establish the 1) test potential, 2) holding potential, and 3) the conditioning potential for each cell.
# After establishing the whole-cell configuration in voltage clamp mode, a standard I-V protocol was run to determine the potential at which the maximal current (Imax) is elicited. This potential was the test potential (Vt). To determine a conditioning potential at which 100% of channels were in the inactivated state, a standard steady-state inactivation (SSIN) protocol was run using a series of fifteen 100 ms-long depolarizing prepulses, incrementing in 10 mV steps, immediately followed by a 5 ms testing pulse, Vt, to Vmax. This protocol also permitted determination of the holding potential at which all channels are in the resting state.
# For compounds causing significant retardation of recovery from inactivation, an estimate of the affinity for the inactivated state of the channel (Ki) was generated using the following protocol. From the negative, no residual inactivation, holding potential, the cell was depolarized to the conditioning voltage for 2-5 seconds, returned to the negative holding potential for 10-20 ms to relieve fast inactivation and then depolarized to the test potential for ˜15 ms. This voltage protocol was repeated every 10-15 seconds, first to establish a baseline in the absence of the test compound, then in the presence of the test compound.
# After a stable baseline was established, the test compound was applied and block of the current elicited by the test pulse assessed. In some cases, multiple cumulative concentrations were applied to identify a concentration that blocked between 40-60% of this current. Washout of the compound was attempted by superfusing with control solution once steady-state block was observed. An estimate of the Ki was calculated as follows: Ki=[drug]*{FR/(1−FR)}, Eq. 1 where [drug] is the concentration of a drug, and FR=I(after drug)/I(control), Eq. 2 where I is the peak current amplitude. If multiple concentrations were used, Ki was determined from the fit of a logistic equation to FRs plotted against corresponding drug concentrations.
# In the alternative, the voltage clamp protocol to examine hNav1.7 currents was as follows. […]
# Nav1.1 = Nav1.1 (Homo sapiens, UniProt P35498); details: read-out: TTX IC50; cited from earlier work
# Nav1.8 = Nav1.8 (Homo sapiens, UniProt Q9Y5Y9); details: read-out: TTX IC50; cited from earlier work
# Nav1.2 = Nav1.2 (Homo sapiens, UniProt Q99250); details: read-out: TTX IC50; cited from earlier work
# Nav1.3 = Nav1.3 (Homo sapiens, UniProt Q9NY46); details: read-out: TTX IC50; cited from earlier work
# Chain of Nav1.3 (Q9NY46 whole entry, looked up): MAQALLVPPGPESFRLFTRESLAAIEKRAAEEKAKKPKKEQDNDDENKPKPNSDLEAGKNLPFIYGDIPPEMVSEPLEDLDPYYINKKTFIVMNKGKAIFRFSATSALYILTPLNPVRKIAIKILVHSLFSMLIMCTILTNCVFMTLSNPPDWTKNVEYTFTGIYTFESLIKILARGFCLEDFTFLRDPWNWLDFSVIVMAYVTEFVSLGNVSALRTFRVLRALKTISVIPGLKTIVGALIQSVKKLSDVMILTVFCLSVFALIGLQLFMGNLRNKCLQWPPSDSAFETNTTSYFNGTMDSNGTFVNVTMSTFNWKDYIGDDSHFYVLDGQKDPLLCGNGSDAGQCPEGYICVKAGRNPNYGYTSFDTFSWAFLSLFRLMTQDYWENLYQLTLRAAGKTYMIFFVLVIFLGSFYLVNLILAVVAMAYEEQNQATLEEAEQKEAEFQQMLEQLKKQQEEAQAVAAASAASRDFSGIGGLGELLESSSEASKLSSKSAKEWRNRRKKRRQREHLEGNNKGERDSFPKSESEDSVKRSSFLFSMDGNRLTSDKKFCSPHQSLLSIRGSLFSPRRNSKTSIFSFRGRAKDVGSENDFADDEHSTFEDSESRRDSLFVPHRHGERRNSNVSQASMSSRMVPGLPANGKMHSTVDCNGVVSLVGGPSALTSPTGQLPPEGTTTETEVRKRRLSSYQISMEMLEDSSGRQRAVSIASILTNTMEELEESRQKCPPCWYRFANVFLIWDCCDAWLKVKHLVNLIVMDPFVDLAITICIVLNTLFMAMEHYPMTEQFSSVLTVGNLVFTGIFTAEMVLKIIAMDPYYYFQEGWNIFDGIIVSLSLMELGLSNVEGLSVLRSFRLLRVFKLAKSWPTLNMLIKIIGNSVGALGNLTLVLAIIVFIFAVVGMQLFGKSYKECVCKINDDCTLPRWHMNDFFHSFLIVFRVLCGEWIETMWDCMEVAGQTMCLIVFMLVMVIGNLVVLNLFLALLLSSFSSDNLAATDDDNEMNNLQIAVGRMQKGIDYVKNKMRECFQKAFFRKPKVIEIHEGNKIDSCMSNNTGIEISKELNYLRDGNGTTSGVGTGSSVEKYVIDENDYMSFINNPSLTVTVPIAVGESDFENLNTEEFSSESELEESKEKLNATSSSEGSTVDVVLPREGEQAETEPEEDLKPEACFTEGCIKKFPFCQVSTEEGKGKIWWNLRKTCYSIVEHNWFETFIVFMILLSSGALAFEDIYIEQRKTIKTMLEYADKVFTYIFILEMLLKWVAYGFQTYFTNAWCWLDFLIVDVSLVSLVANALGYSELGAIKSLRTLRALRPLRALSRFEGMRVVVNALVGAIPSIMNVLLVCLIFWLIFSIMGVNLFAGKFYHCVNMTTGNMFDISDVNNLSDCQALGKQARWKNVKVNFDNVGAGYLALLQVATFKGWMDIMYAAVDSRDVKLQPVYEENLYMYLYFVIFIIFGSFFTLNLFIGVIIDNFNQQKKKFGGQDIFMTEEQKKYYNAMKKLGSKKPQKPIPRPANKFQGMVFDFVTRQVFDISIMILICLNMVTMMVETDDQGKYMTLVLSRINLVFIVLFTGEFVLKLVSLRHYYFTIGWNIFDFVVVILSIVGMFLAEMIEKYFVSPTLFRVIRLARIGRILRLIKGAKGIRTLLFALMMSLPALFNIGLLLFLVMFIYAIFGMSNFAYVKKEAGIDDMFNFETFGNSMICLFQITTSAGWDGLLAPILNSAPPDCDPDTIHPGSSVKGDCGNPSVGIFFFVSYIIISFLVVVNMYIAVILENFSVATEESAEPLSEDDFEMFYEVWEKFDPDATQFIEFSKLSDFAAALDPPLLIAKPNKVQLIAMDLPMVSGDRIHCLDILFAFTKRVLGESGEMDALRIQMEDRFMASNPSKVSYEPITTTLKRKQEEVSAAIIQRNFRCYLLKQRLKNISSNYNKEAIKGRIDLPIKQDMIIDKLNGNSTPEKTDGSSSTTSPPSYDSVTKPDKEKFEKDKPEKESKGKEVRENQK
# Nav1.9 = Nav1.9 (Homo sapiens, UniProt Q9UI33); details: read-out: TTX IC50; cited from earlier work
# Nav1.6 = Nav1.6 (Homo sapiens, UniProt Q9UQD0); details: read-out: TTX IC50; cited from earlier work
# [1] = sodium dye assay with KCl, recombinant Nav1.7/HEK293 cells, read-out: FLIPR Nav1.7 IC50 (μM) ± SEM
# [2] = affinity for the inactivated state of the channel, HEK-293 cells, spread on the next grid line, read-out: EP Nav1.7 Kj
# [3] = HEK-293 cells, spread on the next grid line
# Chain of hNav1.7 (Q15858 1-1977 isoform Q15858-3): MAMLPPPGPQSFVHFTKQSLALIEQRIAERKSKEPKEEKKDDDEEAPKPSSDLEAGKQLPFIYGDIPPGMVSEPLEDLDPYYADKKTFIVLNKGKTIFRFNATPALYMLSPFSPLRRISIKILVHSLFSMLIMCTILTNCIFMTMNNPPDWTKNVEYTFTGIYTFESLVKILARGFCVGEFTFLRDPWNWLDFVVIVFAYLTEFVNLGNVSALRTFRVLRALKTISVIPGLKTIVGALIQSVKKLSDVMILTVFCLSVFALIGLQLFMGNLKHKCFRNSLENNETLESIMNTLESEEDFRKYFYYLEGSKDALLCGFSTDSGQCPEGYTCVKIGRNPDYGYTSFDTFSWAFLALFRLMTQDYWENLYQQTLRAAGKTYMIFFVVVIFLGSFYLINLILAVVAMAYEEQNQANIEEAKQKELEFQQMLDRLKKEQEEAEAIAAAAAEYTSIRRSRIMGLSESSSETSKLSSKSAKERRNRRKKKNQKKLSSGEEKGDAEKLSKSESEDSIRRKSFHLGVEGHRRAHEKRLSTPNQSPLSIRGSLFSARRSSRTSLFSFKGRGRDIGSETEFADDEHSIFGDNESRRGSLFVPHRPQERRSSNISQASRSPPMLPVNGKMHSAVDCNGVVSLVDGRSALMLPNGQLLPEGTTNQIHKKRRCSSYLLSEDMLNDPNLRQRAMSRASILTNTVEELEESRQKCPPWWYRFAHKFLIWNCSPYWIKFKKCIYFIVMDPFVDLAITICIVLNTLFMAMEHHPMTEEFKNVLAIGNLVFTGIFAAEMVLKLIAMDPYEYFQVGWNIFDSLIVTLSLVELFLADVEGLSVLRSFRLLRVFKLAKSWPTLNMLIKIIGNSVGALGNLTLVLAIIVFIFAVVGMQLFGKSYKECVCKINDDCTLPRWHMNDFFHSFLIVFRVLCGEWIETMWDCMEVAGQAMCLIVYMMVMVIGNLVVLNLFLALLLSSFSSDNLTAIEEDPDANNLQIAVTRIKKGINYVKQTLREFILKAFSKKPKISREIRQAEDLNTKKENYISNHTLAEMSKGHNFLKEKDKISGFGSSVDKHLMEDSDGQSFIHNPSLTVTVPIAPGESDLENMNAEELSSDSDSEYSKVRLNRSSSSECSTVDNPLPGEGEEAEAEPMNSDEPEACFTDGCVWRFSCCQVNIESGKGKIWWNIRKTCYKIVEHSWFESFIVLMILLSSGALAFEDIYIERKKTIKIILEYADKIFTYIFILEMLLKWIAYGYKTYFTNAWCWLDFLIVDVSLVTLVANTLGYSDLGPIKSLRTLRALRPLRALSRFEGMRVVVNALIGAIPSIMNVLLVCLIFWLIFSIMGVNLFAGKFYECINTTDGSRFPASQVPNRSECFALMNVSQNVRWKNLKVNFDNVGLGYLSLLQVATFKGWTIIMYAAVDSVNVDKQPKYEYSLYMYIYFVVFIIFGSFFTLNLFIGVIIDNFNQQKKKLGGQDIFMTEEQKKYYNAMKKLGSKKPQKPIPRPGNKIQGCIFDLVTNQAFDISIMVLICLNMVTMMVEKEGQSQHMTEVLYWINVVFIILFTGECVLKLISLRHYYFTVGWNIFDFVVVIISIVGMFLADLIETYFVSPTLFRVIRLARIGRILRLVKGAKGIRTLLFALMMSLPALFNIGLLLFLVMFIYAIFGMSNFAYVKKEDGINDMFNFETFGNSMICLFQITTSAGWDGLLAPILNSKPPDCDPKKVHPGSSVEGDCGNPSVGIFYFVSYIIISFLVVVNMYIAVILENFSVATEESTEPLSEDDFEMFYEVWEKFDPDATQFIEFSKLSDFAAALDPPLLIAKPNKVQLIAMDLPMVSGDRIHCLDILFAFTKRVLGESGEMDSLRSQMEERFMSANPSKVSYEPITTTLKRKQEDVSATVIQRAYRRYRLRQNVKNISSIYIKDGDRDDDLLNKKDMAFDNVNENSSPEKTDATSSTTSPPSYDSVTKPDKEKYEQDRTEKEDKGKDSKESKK
# Chain of human Nav1.7 (Q15858 1-1977 isoform Q15858-3): as above
Compound,IC50 (human Nav1.7; [1]) [µM],Ki (hNav1.7; [2]) [nM],Kd (hNav1.7; [3]) [nM],further results
"OCC(CO)Nc1nc(-c2ccc(Oc3ccc(F)cc3)cc2)c2ccccc2n1 [Compound 13u, 2-((4-(4-(4-fluorophenoxy)phenyl)quinazolin-2-yl)amino)propane-1,3-diol]",0.208,640,55300,–
"O=C1NCCN1CCNc1nc(-c2ccc(Oc3ccc(F)cc3)cc2)c2ccccc2n1 [Compound 13v, 1-(2-((4-(4-(4-fluorophenoxy)phenyl)quinazolin-2-yl)amino)ethyl)imidazolidin-2-one]",0.204,460,23700,–
"COC(=O)[C@@H]1CCCN1c1nc(-c2ccc(Oc3ccc(F)cc3)cc2)c2ccccc2n1 [Compound 13f, (S)-methyl 1-(4-(4-(4-fluorophenoxy)phenyl)-quinazolin-2-yl)pyrrolidine-2-carboxylate]",0.642,620,23900,–
"NC(=O)[C@H](CO)Nc1nc(-c2ccc(Oc3ccc(F)cc3)cc2)c2ccccc2n1 [Compound 13a, (S)-2-{4-[4-(4-fluorophenoxy)phenyl]quinazolin-2-ylamino}-3-hydroxy-propionamide]",0.836,740,–,–
"CN1CCN(c2nc(-c3ccc(Oc4ccc(F)cc4)cc3)c3ccccc3n2)CC1 [Compound 13k, 4-(4-(4-fluorophenoxy)phenyl)-2-(4-methylpiperazin-1-yl)quinazoline]",0.418,70,2090,–
"NC(=O)[C@@H]1CCCN1c1nc(-c2ccc(Oc3ccc(F)cc3)cc2)c2ccccc2n1 [Compound 13l, (S)-1-(4-(4-(4-fluorophenoxy)phenyl)quinazolin-2-yl)pyrrolidine-2-carboxamide]",0.105,190,–,–
"OC[C@H](O)CNc1nc(-c2ccc(Oc3ccc(F)cc3)cc2)c2ccccc2n1 [Compound 13q, (R)-3-((4-(4-(4-fluorophenoxy)phenyl)quinazolin-2-yl)amino)propane-1,2-diol]",0.071,220,–,–
"CN1[C@@H]2CCC[C@H]1C[C@@H](Nc1nc(-c3ccc(Oc4ccc(F)cc4)cc3)c3ccccc3n1)C2 [Compound 13t, 4-(4-(4-fluorophenoxy)phenyl)-N-((1R,3S,5S)-9-methyl-9-azabicyclo[3.3.1]nonan-3-yl)quinazolin-2-amine]",–,–,–,IC50 (human Nav1.7): 0.228 µM; Ki (hNav1.7): 20 nM
"NC(=O)c1nc(-c2ccc(Oc3ccccc3)cc2)c2ccccc2n1 [Compound 5, 4-(4-phenoxyphenyl)quinazoline-2-carboxamide]",0.097,120,–,–
"CCN1CCN(c2nc(-c3ccc(Oc4ccc(F)cc4)cc3)c3ccccc3n2)CC1 [Compound 13h, 2-(4-ethylpiperazin-1-yl)-4-(4-(4-fluorophenoxy)phenyl)quinazoline]",0.236,–,–,–
"O=C(O)c1nc(-c2ccc(Oc3ccccc3)cc2)c2ccccc2n1 [Compound 4, 4-(4-phenoxyphenyl)quinazoline-2-carboxylic acid]",> 20,–,–,–
"NN(CCO)c1nc(-c2ccc(Oc3ccc(F)cc3)cc2)c2ccccc2n1 [Compound 13w, 2-(1-(4-(4-(4-fluorophenoxy)phenyl)quinazolin-2-yl)hydrazinyl)ethanol]",0.07,–,–,–
"NC1=N[C@H](O)[C@H]2[C@H]3O[C@]4(O)O[C@@H]([C@@H](O)[C@@]2(N1)[C@@H]4O)[C@]3(O)CO [TTX, tetrodotoxin]",–,–,–,IC50 (Nav1.1): 10 nM; IC50 (Nav1.8): 50000 nM; IC50 (Nav1.2): 10 nM; IC50 (Nav1.3): 15 nM; IC50 (Nav1.9): 1000 nM; IC50 (Nav1.6): 6 nM
